tested on: IL-1β cytokine output from THP-1s; assay: THP-1 AlphaLISA IL-1β cytokine assay; format: cell-based, human; details: Homo sapiens, THP-1, PMA-differentiated THP-1 cells, LPS 24 hr then Nigericin 1 hour; read-out: IL-1β (IC50)
How it was run: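 PMA-differentiated (72 h) THP-1 cells pretreated 30 min with compound, LPS-stimulated 24 h, then nigericin 1 h at 37 °C. Supernatant IL-1β and IL-6 by AlphaLISA; % inhibition normalised to ±LPS controls, IC50 from concentration-response curves.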

Compound	IC50
C=C(CC(=O)O[C@@H](CC)CCCCC)C(=O)OCC(=O)O [Example 170, (S)-2-(2-methylene-4-(octan-3-yloxy)-4-oxobutanoyloxy)acetic acid]	14.7 µM
C=C(CC(=O)O[C@H](CC)CCCCC)C(=O)OCC(=O)O [Example 178, (R)-2-(2-methylene-4-(octan-3-yloxy)-4-oxobutanoyloxy)acetic acid]	24.6 µM

tested on: not listed separately; assay: Mouse pharmacokinetic study, oral administration; format: in vivo; details: male, C57BL/6, mouse, plasma, po, 100 mg/kg, plasma, male C57BL/6 mice, oral gavage 100 mg/kg, 0.083 h; read-out: Parent compound concentrations following oral administration, Time 0.083 h
Experimental: Pharmacokinetic studies were carried out in 6-8-week-old male C57BL/6 mice having free access to food and water. Intravenous dosing was conducted at 10 mg/kg (5 mL/kg; vehicle: 10% DMSO-90% (25% HP-13-CD in water)) via tail vein injection, with sampling at 3 min, 8 min, 15 min, 30 min, 1, 2, 4, 6 and 8 hours, i.e., 9 time points in total (N=3/time point), using semi-serial bleeding for plasma. Oral compound administration, via gavage, was carried out at 100 mg/kg (10 mL/kg; vehicle: 5% DMSO-95% (0.5% HPMC+0.1% Tween 80 in water)), with sampling at 5 min, 15 min, 30 min, 1, 2, 4, 6, 8 and 24 hours, i.e., 9 time points in total (N=3/time point), using semi-serial bleeding for plasma.
For both intravenous and oral routes, the mice were restrained manually at the designated time points, with ca. 110 μL of blood being taken into K2EDTA tubes via the facial vein. Blood samples were put on ice and centrifuged to obtain plasma samples from which the concentration at each time point was measured by LC-MS/MS.

Compound	concentration at 0.083 h
C=C(CC(=O)O[C@@H](CC)CCCCC)C(=O)OCC(=O)O [Example 170, (S)-2-(2-methylene-4-(octan-3-yloxy)-4-oxobutanoyloxy)acetic acid]	55000 ng/mL
C=C(CC(=O)O[C@H](CC)CCCCC)C(=O)OCC(=O)O [Example 178, (R)-2-(2-methylene-4-(octan-3-yloxy)-4-oxobutanoyloxy)acetic acid]	67100 ng/mL

same assay, conditions: male, C57BL/6, mouse, plasma, po, 100 mg/kg, plasma, male C57BL/6 mice, oral gavage 100 mg/kg, 0.25 h; read-out: Parent compound concentrations following oral administration, Time 0.25 h

Compound	concentration at 0.25 h
C=C(CC(=O)O[C@@H](CC)CCCCC)C(=O)OCC(=O)O [Example 170, (S)-2-(2-methylene-4-(octan-3-yloxy)-4-oxobutanoyloxy)acetic acid]	38400 ng/mL
C=C(CC(=O)O[C@H](CC)CCCCC)C(=O)OCC(=O)O [Example 178, (R)-2-(2-methylene-4-(octan-3-yloxy)-4-oxobutanoyloxy)acetic acid]	27100 ng/mL

same assay, conditions: male, C57BL/6, mouse, plasma, po, 100 mg/kg, plasma, male C57BL/6 mice, oral gavage 100 mg/kg, 0.5 h; read-out: Parent compound concentrations following oral administration, Time 0.5 h

Compound	concentration at 0.5 h
C=C(CC(=O)O[C@@H](CC)CCCCC)C(=O)OCC(=O)O [Example 170, (S)-2-(2-methylene-4-(octan-3-yloxy)-4-oxobutanoyloxy)acetic acid]	40600 ng/mL
C=C(CC(=O)O[C@H](CC)CCCCC)C(=O)OCC(=O)O [Example 178, (R)-2-(2-methylene-4-(octan-3-yloxy)-4-oxobutanoyloxy)acetic acid]	27900 ng/mL

same assay, conditions: male, C57BL/6, mouse, plasma, po, 100 mg/kg, plasma, male C57BL/6 mice, oral gavage 100 mg/kg, 1 h; read-out: Parent compound concentrations following oral administration, Time 1 h

Compound	concentration at 1 h
C=C(CC(=O)O[C@@H](CC)CCCCC)C(=O)OCC(=O)O [Example 170, (S)-2-(2-methylene-4-(octan-3-yloxy)-4-oxobutanoyloxy)acetic acid]	10100 ng/mL
C=C(CC(=O)O[C@H](CC)CCCCC)C(=O)OCC(=O)O [Example 178, (R)-2-(2-methylene-4-(octan-3-yloxy)-4-oxobutanoyloxy)acetic acid]	11000 ng/mL

same assay, conditions: male, C57BL/6, mouse, plasma, po, 100 mg/kg, plasma, male C57BL/6 mice, oral gavage 100 mg/kg, 2 h; read-out: Parent compound concentrations following oral administration, Time 2 h

Compound	concentration at 2 h
C=C(CC(=O)O[C@@H](CC)CCCCC)C(=O)OCC(=O)O [Example 170, (S)-2-(2-methylene-4-(octan-3-yloxy)-4-oxobutanoyloxy)acetic acid]	4420 ng/mL
C=C(CC(=O)O[C@H](CC)CCCCC)C(=O)OCC(=O)O [Example 178, (R)-2-(2-methylene-4-(octan-3-yloxy)-4-oxobutanoyloxy)acetic acid]	3660 ng/mL

same assay, conditions: male, C57BL/6, mouse, plasma, po, 100 mg/kg, plasma, male C57BL/6 mice, oral gavage 100 mg/kg, 4 h; read-out: Parent compound concentrations following oral administration, Time 4 h

Compound	concentration at 4 h
C=C(CC(=O)O[C@@H](CC)CCCCC)C(=O)OCC(=O)O [Example 170, (S)-2-(2-methylene-4-(octan-3-yloxy)-4-oxobutanoyloxy)acetic acid]	4400 ng/mL
C=C(CC(=O)O[C@H](CC)CCCCC)C(=O)OCC(=O)O [Example 178, (R)-2-(2-methylene-4-(octan-3-yloxy)-4-oxobutanoyloxy)acetic acid]	1460 ng/mL

same assay, conditions: male, C57BL/6, mouse, plasma, po, 100 mg/kg, plasma, male C57BL/6 mice, oral gavage 100 mg/kg, 6 h; read-out: Parent compound concentrations following oral administration, Time 6 h

Compound	concentration at 6 h
C=C(CC(=O)O[C@@H](CC)CCCCC)C(=O)OCC(=O)O [Example 170, (S)-2-(2-methylene-4-(octan-3-yloxy)-4-oxobutanoyloxy)acetic acid]	441 ng/mL
C=C(CC(=O)O[C@H](CC)CCCCC)C(=O)OCC(=O)O [Example 178, (R)-2-(2-methylene-4-(octan-3-yloxy)-4-oxobutanoyloxy)acetic acid]	2240 ng/mL

same assay, conditions: male, C57BL/6, mouse, plasma, po, 100 mg/kg, plasma, male C57BL/6 mice, oral gavage 100 mg/kg, 8 h; read-out: Parent compound concentrations following oral administration, Time 8 h

Compound	concentration at 8 h
C=C(CC(=O)O[C@@H](CC)CCCCC)C(=O)OCC(=O)O [Example 170, (S)-2-(2-methylene-4-(octan-3-yloxy)-4-oxobutanoyloxy)acetic acid]	25 ng/mL
C=C(CC(=O)O[C@H](CC)CCCCC)C(=O)OCC(=O)O [Example 178, (R)-2-(2-methylene-4-(octan-3-yloxy)-4-oxobutanoyloxy)acetic acid]	639 ng/mL

same assay, conditions: male, C57BL/6, mouse, plasma, po, 100 mg/kg, plasma, male C57BL/6 mice, oral gavage 100 mg/kg, 24 h; read-out: Parent compound concentrations following oral administration, Time 24 h

Compound	concentration at 24 h
C=C(CC(=O)O[C@@H](CC)CCCCC)C(=O)OCC(=O)O [Example 170, (S)-2-(2-methylene-4-(octan-3-yloxy)-4-oxobutanoyloxy)acetic acid]	8.1 ng/mL
C=C(CC(=O)O[C@H](CC)CCCCC)C(=O)OCC(=O)O [Example 178, (R)-2-(2-methylene-4-(octan-3-yloxy)-4-oxobutanoyloxy)acetic acid]	< 4 ng/mL

tested on: not listed separately; assay: Mouse pharmacokinetic study, intravenous dosing; format: in vivo; details: male, C57BL/6, mouse, iv; plasma, 10 mg/kg i.v., time 0.05 h; read-out: Parent compound concentration following intravenous administration
How it was run: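 Oral arm: 100 mg/kg gavage in 5% DMSO with 0.5% HPMC/0.1% Tween 80, blood from 5 min to 24 h. Intravenous arm: 10 mg/kg tail-vein injection in 10% DMSO with HP-β-CD, blood from 3 min to 8 h. Male C57BL/6 mice; LC-MS/MS on plasma.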

Compound	concentration at 0.05 h
C=C(CC(=O)O[C@@H](CC)CCCCC)C(=O)OCC(=O)O [Example 170, (S)-2-(2-methylene-4-(octan-3-yloxy)-4-oxobutanoyloxy)acetic acid]	37200 ng/mL
C=C(CC(=O)O[C@H](CC)CCCCC)C(=O)OCC(=O)O [Example 178, (R)-2-(2-methylene-4-(octan-3-yloxy)-4-oxobutanoyloxy)acetic acid]	33400 ng/mL

same assay, conditions: male, C57BL/6, mouse, iv; plasma, 10 mg/kg i.v., time 0.133 h; read-out: Parent compound concentration following intravenous administration

Compound	concentration at 0.133 h
C=C(CC(=O)O[C@@H](CC)CCCCC)C(=O)OCC(=O)O [Example 170, (S)-2-(2-methylene-4-(octan-3-yloxy)-4-oxobutanoyloxy)acetic acid]	21900 ng/mL
C=C(CC(=O)O[C@H](CC)CCCCC)C(=O)OCC(=O)O [Example 178, (R)-2-(2-methylene-4-(octan-3-yloxy)-4-oxobutanoyloxy)acetic acid]	15500 ng/mL

same assay, conditions: male, C57BL/6, mouse, iv; plasma, 10 mg/kg i.v., time 0.25 h; read-out: Parent compound concentration following intravenous administration

Compound	concentration at 0.25 h
C=C(CC(=O)O[C@@H](CC)CCCCC)C(=O)OCC(=O)O [Example 170, (S)-2-(2-methylene-4-(octan-3-yloxy)-4-oxobutanoyloxy)acetic acid]	8930 ng/mL
C=C(CC(=O)O[C@H](CC)CCCCC)C(=O)OCC(=O)O [Example 178, (R)-2-(2-methylene-4-(octan-3-yloxy)-4-oxobutanoyloxy)acetic acid]	5680 ng/mL

same assay, conditions: male, C57BL/6, mouse, iv; plasma, 10 mg/kg i.v., time 0.5 h; read-out: Parent compound concentration following intravenous administration

Compound	concentration at 0.5 h
C=C(CC(=O)O[C@@H](CC)CCCCC)C(=O)OCC(=O)O [Example 170, (S)-2-(2-methylene-4-(octan-3-yloxy)-4-oxobutanoyloxy)acetic acid]	1660 ng/mL
C=C(CC(=O)O[C@H](CC)CCCCC)C(=O)OCC(=O)O [Example 178, (R)-2-(2-methylene-4-(octan-3-yloxy)-4-oxobutanoyloxy)acetic acid]	2850 ng/mL

same assay, conditions: male, C57BL/6, mouse, iv; plasma, 10 mg/kg i.v., time 1 h; read-out: Parent compound concentration following intravenous administration

Compound	concentration at 1 h
C=C(CC(=O)O[C@@H](CC)CCCCC)C(=O)OCC(=O)O [Example 170, (S)-2-(2-methylene-4-(octan-3-yloxy)-4-oxobutanoyloxy)acetic acid]	476 ng/mL
C=C(CC(=O)O[C@H](CC)CCCCC)C(=O)OCC(=O)O [Example 178, (R)-2-(2-methylene-4-(octan-3-yloxy)-4-oxobutanoyloxy)acetic acid]	594 ng/mL

same assay, conditions: male, C57BL/6, mouse, iv; plasma, 10 mg/kg i.v., time 2 h; read-out: Parent compound concentration following intravenous administration

Compound	concentration at 2 h
C=C(CC(=O)O[C@@H](CC)CCCCC)C(=O)OCC(=O)O [Example 170, (S)-2-(2-methylene-4-(octan-3-yloxy)-4-oxobutanoyloxy)acetic acid]	66 ng/mL
C=C(CC(=O)O[C@H](CC)CCCCC)C(=O)OCC(=O)O [Example 178, (R)-2-(2-methylene-4-(octan-3-yloxy)-4-oxobutanoyloxy)acetic acid]	61 ng/mL

same assay, conditions: male, C57BL/6, mouse, iv; plasma, 10 mg/kg i.v., time 4 h; read-out: Parent compound concentration following intravenous administration

Compound	concentration at 4 h
C=C(CC(=O)O[C@@H](CC)CCCCC)C(=O)OCC(=O)O [Example 170, (S)-2-(2-methylene-4-(octan-3-yloxy)-4-oxobutanoyloxy)acetic acid]	12 ng/mL
C=C(CC(=O)O[C@H](CC)CCCCC)C(=O)OCC(=O)O [Example 178, (R)-2-(2-methylene-4-(octan-3-yloxy)-4-oxobutanoyloxy)acetic acid]	8.2 ng/mL

same assay, conditions: male, C57BL/6, mouse, iv; plasma, 10 mg/kg i.v., time 6 h; read-out: Parent compound concentration following intravenous administration

Compound	concentration at 6 h
C=C(CC(=O)O[C@@H](CC)CCCCC)C(=O)OCC(=O)O [Example 170, (S)-2-(2-methylene-4-(octan-3-yloxy)-4-oxobutanoyloxy)acetic acid]	< 4 ng/mL
C=C(CC(=O)O[C@H](CC)CCCCC)C(=O)OCC(=O)O [Example 178, (R)-2-(2-methylene-4-(octan-3-yloxy)-4-oxobutanoyloxy)acetic acid]	< 4 ng/mL

same assay, conditions: male, C57BL/6, mouse, iv; plasma, 10 mg/kg i.v., time 8 h; read-out: Parent compound concentration following intravenous administration

Compound	concentration at 8 h
C=C(CC(=O)O[C@@H](CC)CCCCC)C(=O)OCC(=O)O [Example 170, (S)-2-(2-methylene-4-(octan-3-yloxy)-4-oxobutanoyloxy)acetic acid]	< 4 ng/mL
C=C(CC(=O)O[C@H](CC)CCCCC)C(=O)OCC(=O)O [Example 178, (R)-2-(2-methylene-4-(octan-3-yloxy)-4-oxobutanoyloxy)acetic acid]	< 4 ng/mL
